Source: paper PMC7812606 (ACS Medicinal Chemistry Letters, 2020)
Entries after “also recorded” stand apart in the source; their conditions may differ.

What was measured:
JNK3 = JNK3 (Homo sapiens, UniProt P53779); format: biochemical; details: JNK3 or JNK1
[1] = test system: APP^T668 phosphorylation in primary neurons; assay: Cell-based inhibition of APP T668 phosphorylation; details: concentration as low as 10 nM
[2] = target: panel of ∼374 wild-type kinases; assay: Kinase panel profiling, overall; format: biochemical; details: 17 and 25 at 5 μM, 27 at 10 μM
JNK2 = JNK2 (Homo sapiens, UniProt P45984); format: biochemical; details: isoform selectivity, fold
In vivo brain exposure = details: mice

Chain of JNK2 (P45984 whole entry, canonical isoform): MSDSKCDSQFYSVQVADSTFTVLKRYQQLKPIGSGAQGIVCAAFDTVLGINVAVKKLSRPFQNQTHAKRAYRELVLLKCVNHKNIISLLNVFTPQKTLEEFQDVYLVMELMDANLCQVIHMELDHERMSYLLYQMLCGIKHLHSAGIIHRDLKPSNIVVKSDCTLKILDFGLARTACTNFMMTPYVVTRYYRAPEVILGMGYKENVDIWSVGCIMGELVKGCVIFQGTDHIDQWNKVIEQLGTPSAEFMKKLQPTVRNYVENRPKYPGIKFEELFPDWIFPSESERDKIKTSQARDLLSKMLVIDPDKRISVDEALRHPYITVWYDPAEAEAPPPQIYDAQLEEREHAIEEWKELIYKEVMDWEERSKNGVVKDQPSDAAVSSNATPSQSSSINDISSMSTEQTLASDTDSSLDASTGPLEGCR
Chain of JNK3 (P53779 whole entry): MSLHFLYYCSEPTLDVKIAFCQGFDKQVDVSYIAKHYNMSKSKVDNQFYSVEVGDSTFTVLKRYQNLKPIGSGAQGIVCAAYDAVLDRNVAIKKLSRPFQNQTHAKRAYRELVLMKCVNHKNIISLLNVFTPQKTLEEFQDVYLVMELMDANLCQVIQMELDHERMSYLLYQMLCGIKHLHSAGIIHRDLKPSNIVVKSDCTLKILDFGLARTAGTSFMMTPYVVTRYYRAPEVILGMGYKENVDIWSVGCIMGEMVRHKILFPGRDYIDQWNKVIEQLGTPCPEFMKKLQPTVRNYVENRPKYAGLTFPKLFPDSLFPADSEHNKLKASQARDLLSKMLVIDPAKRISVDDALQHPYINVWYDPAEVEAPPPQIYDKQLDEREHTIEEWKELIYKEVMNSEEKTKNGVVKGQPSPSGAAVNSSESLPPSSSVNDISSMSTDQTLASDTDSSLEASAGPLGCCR

Row | SMILES | inhibition of phosphorylation of residue T668 of APP [1] | kinases with significant inhibition (>80% inhibition) in panel [2] | other results
1 | O=C(Nc1cnn(-c2nc(C(=O)NC3CNC3)cs2)c1)Nc1ccccc1Cl [Compound 3] | – | – | inhibition of JNK3 and JNK1 in words (JNK3): no inhibitions
2 | Cc1sc(C(=O)N[C@@H]2CCOC2)cc1-n1cc(NC(=O)Nc2c(F)cccc2Cl)cn1 [Compound 28] | significantly inhibited | – | –
3 | Cc1sc(C(=O)NC2COC2)cc1-n1cc(NC(=O)Nc2c(F)cccc2Cl)cn1 [Compound 27] | – | against only JNK3 | –
4 | O=C(Nc1cnn(-c2csc(C(=O)N[C@@H]3CCOC3)c2)c1)Nc1ccccc1Cl [Compound 16] | – | – | R: ratio of IC50 values for JNK2 over JNK3 (JNK2): > 250
5 | O=C(Nc1cnn(-c2csc(C(=O)NC3COC3)c2)c1)Nc1ccccc1Cl [Compound 17] | significantly inhibited | significant inhibition to only JNK3; also recorded: against only JNK3 | brain penetration (In vivo brain exposure; po dosing): brain penetrant; oral bioavailability (In vivo brain exposure; po dosing): has oral bioavailability; brain concentration (In vivo brain exposure; po, 10 mg/kg, 1 h after dosing): 1080 nM; plasma concentration (In vivo brain exposure; po, 10 mg/kg, 1 h after dosing): 960 nM
6 | O=C(Nc1cnn(-c2csc(C(=O)NC3COC3)c2)c1)Nc1c(F)cccc1Cl [Compound 25] | – | against only JNK3 | –
7 | O=C(Nc1cnn(-c2csc(C(=O)NC3COC3)c2)c1)Nc1ccc(F)cc1Cl [Compound 26] | significantly inhibited | – | –
